The values below come from PubChem BioAssay (NCI).

Common to all, as to assay: growth of human tumour cells (NCI), 48 h
Experiment [1] has as its system 786-0 renal.
For experiment [2], the system named is DU-145 prostate.
Experiment [3] relates to K-562 leukemia.
Experiment [4] has as its system SF-268 CNS.
Experiment [5] has as its system SF-539 CNS.
For experiment [6], the system named is SR leukemia.
Experiment [7] concerns UACC-257 melanoma.
Experiment [8] has as its system UO-31 renal.
Experiment [9] concerns DLD-1 colon.
The test system of experiment [10] is DMS 114 small cell lung.
The subject of experiment [11] is DMS 273 small cell lung.
Experiment [12] concerns KM20L2 colon.
Experiment [13] deals with LXFL 529 NSCLC.
Experiment [14] has as its system M19-MEL melanoma.
Experiment [15] deals with SNB-78 CNS.
Experiment [16] deals with XF 498 CNS.

Each structure is given as a SMILES string.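 Each compound was tested at five concentrations against cells in 96-well plates for 48 hours. TGI is the concentration that stops growth completely.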

As for `CCCCNC(=O)Nc1c(C(N)=O)c2n(c1C(=O)OCC)CCCCC2`, the TGI in [1], in [2], in [3], in [4], in experiment [5] and in experiment [6] was over 100 µM each time. The TGI in experiment [7] and in [8] was over 100 µM throughout.

As to `Cc1c(CCCl)c(N=[N+]=[N-])n2c(nc3ccccc32)c1C#N`, the TGI in [1] came out at 1.63 µM; in experiment [2], 6.3 µM; in experiment [3], 1.48 µM; in experiment [4] it was 5.67 µM; in [5], 3.5 µM; in experiment [6] it was 1.08 µM. The TGI in [7] came out at 3.53 µM; in [8] it was 3.32 µM.

Regarding `c1ccc2sc(C3(N4CCCCC4)CCCCCC3)cc2c1`, the TGI in experiment [1] was 47.4 µM; in [2] it was over 100 µM; in [3] it was 31 µM; in experiment [4], 46.7 µM; in experiment [5] it was 38.2 µM; in experiment [6], 36.7 µM. Besides, the figures for the TGI in experiment [7] and in [8] were 34.9 µM and 60.8 µM, respectively.

On to `Cc1c[nH]c(C(=O)O)c1-c1ccc2c(-c3ccccc3)nc3ccccc3n12`, for which the TGI in [1] was over 100 µM; in [2], over 100 µM; in experiment [3] it was over 100 µM; in experiment [4], over 100 µM; in [5] it was 49.3 µM; in experiment [6], 66.2 µM. For the same molecule, the TGI in experiment [7] and in experiment [8] was over 100 µM in each case.

On to `COC(=O)/C=C1/N=C(N(C)/N=C/c2ccccc2)NC1=O`, for which the TGI in [1], in experiment [2], in [3], in experiment [4], in experiment [5] and in [6] was over 100 µM in each case. Moreover, the TGI in experiment [7] and in experiment [8] was over 100 µM each time.

Regarding `COc1cc2c(cc1OC)C1(c3ccccc3)CN(C2)Cc2cc(OC)c(OC)cc21`, the TGI was over 100 µM in [1]; over 100 µM in experiment [2]; over 100 µM in [3]; over 100 µM in experiment [4]; 41.9 µM in experiment [5]; 32.2 µM in experiment [6]. The TGI in experiment [7] and in experiment [8] was over 100 µM in each case.

On to `Oc1c(-c2ccccc2)sc2ccccc12`, for which the TGI is 59 µM in experiment [1]; 59.5 µM in experiment [2]; 67.5 µM in experiment [3]; over 100 µM in experiment [4]; over 100 µM in experiment [5]; 34.9 µM in [6]. In addition, the values for the TGI in experiment [7] and in experiment [8] were 98.9 µM and 84.6 µM, respectively.

Turning to `N#CC(C#N)=C(N)/C(C#N)=C/c1cc(O)c(O)c(Br)c1`, the TGI in experiment [1] is over 100 µM; in experiment [9] it was over 100 µM; in [10], 88.5 µM; in experiment [11], over 100 µM; in experiment [2], over 100 µM; in experiment [3], over 100 µM. Besides, the TGI in experiment [12], in [13], in experiment [14], in [4], in experiment [5] and in experiment [15] was over 100 µM in each case. For the same molecule, the TGI in [6], in experiment [7], in experiment [8] and in [16] was over 100 µM each time.

Take `Cn1cc(C[C@@H](N)C(=O)O)c2ccccc21`: the TGI in [1], in experiment [2], in [3], in experiment [4], in experiment [5] and in experiment [6] was over 100 µM each time. The TGI in experiment [7] and in [8] was over 100 µM each time.

On to `O=C(/C=C(\Nc1ccccc1O)c1ccccc1)C(=O)NC12CC3CC(CC(C3)C1)C2`, for which the TGI in experiment [1], in experiment [2], in experiment [3], in experiment [4], in experiment [5] and in experiment [6] was over 10 µM throughout. Besides, the TGI in experiment [7] and in [8] was over 10 µM throughout.

In the case of `O=c1cc(CC(O)(C(F)(F)Cl)C(F)(F)Cl)[nH]n1-c1ccccc1`, the TGI in experiment [1], in experiment [2], in experiment [3], in experiment [4], in [5] and in experiment [6] was over 100 µM throughout. The TGI in [7] and in experiment [8] was over 100 µM each time.

With `CCCC(=O)OC[n+]1cccc(-c2c(COC(=O)NC(C)C)c(COC(=O)NC(C)C)c3n2CCC3)c1`, the TGI is over 100 µM in experiment [1]; over 100 µM in [2]; over 100 µM in [3]; over 100 µM in experiment [4]; 60.9 µM in [5]; over 100 µM in experiment [6]. Besides, the TGI in [7] and in [8] was over 100 µM each time.

Turning to `Cc1ccc(S(=O)(=O)Oc2ccc(OS(=O)(=O)c3ccc(C)cc3)c3c2C(=O)c2ccccc2C3=O)cc1`, the TGI in experiment [1], in [2], in experiment [3], in experiment [4], in [5] and in experiment [6] was over 100 µM in each case. The TGI in experiment [7] and in experiment [8] was over 100 µM in each case.

As for `COC(=O)C(Cc1ccccc1I)C1=CCC2(CC1)OCCO2` (stereo not drawn), the TGI was over 100 µM in [1]; over 100 µM in experiment [2]; over 100 µM in [3]; over 100 µM in [4]; over 100 µM in experiment [5]; 52 µM in experiment [6]. In addition, the TGI in [7] was 97.1 µM; in experiment [8], 66.3 µM.

`Cc1cc2c(cc1C)[n+](=O)c(C(=O)N1CCN(c3ccc([N+](=O)[O-])cc3)CC1)c(C)n2[O-]`: the TGI in experiment [1] was 34.8 µM; in experiment [2], over 100 µM; in [3], over 100 µM; in [4], 57.1 µM; in [5] it was 35.4 µM; in experiment [6], over 100 µM. The TGI in [7] and in [8] was over 100 µM in each case.
